What all share (format): cell-based
The subject of series [1] is Staphylococcus aureus (DSM 346). In words: Antimicrobial assay (MIC), S. aureus. To be noted: n.i. = no inhibition up to 67 μg/mL. Here is the method:
(§1) The antimicrobial effects of the isolated compounds were determined using our established protocols.[19] Generally, an array of clinically relevant microorganisms consisting of bacteria, namely, S. aureus (DSM 346), A. baumanii (DSM 30008), B. subtilis (DSM 10), E. coli (DSM 1116), P. aeruginosa (PA14), C. violaceum (DSM 30191), and M. smegmatis (ATCC 700084), and fungi including M. hiemalis (DSM 2656), C. albicans (DSM 1665), R. glutinis (DSM 10134), S. pombe (DSM 70572), and P. anomala (DSM 6766), were used. […] The minimum inhibitory concentrations (MIC) were recorded after an overnight incubation as the lowest concentration under which no microbial growth was visualized. The microorganisms were obtained from the German Collection of Microorganisms and Cell Cultures (DSMZ, Braunschweig, Germany).

In series [2] the test system is Escherichia coli (DSM 1116). In words: Antimicrobial assay (MIC), E. coli. To be noted: overnight incubation, n.i. = no inhibition up to 67 μg/mL. Here is the method:
as §1

Series [3] concerns Bacillus subtilis (DSM 10). Put plainly: Antimicrobial assay (MIC), B. subtilis. The conditions noted are these: n.i. = no inhibition up to 67 μg/mL. Here is the method: as §1
Series [4] has as its system Pseudomonas aeruginosa (PA14). Put plainly: Antimicrobial assay (MIC), P. aeruginosa. To be noted: overnight incubation, n.i. = no inhibition up to 67 μg/mL. Here is the method: as §1
Series [5] deals with Pichia anomala (DSM 6766). Put plainly: Antimicrobial assay (MIC), P. anomala. The conditions noted are these: Pichia anomala; overnight incubation; n.i. = no inhibition up to 67 μg/mL. Here is the method: as §1
Series [6] deals with Candida albicans (DSM 1665). Put plainly: Antimicrobial assay (MIC), C. albicans. To be noted: overnight incubation, n.i. = no inhibition up to 67 μg/mL. Here is the method:
as §1

Series [7] relates to Acinetobacter baumanii (DSM 30008). In words: Antimicrobial assay (MIC), A. baumanii. The conditions noted are these: overnight incubation, n.i. = no inhibition up to 67 μg/mL. Here is the method: as §1
In series [8] the test system is Chromobacterium violaceum (DSM 30191). Put plainly: Antimicrobial assay (MIC), C. violaceum. The conditions noted are these: overnight incubation, n.i. = no inhibition up to 67 μg/mL. Here is the method:
as §1

Series [9] has as its system Schizosaccharomyces pombe (DSM 70572). In words: Antimicrobial assay (MIC), S. pombe. To be noted: overnight incubation, n.i. = no inhibition up to 67 μg/mL. Here is the method: as §1
For series [10], the system named is Mucor hiemalis (DSM 2656). In words: Antimicrobial assay (MIC), M. hiemalis. To be noted: n.i. = no inhibition up to 67 μg/mL. Here is the method:
as §1

For series [11], the system named is Rhodotorula glutinis (DSM 10134). Put plainly: Antimicrobial assay (MIC), R. glutinis. To be noted: overnight incubation, n.i. = no inhibition up to 67 μg/mL. Here is the method:
as §1

Series [12] concerns Mycobacterium smegmatis (ATCC 700084). In words: Antimicrobial assay (MIC), M. smegmatis. To be noted: Mycobacterium smegmatis; overnight incubation; n.i. = no inhibition up to 67 μg/mL. Here is the method:
as §1

The test system of a further series is mouse fibroblast (L929). In words: Cytotoxicity (MTT) assay, L929. The text has this: (§2) MTT (3-(4,5-dimethylthiayol-2-yl)-2,5-diphenyltetrazolium bromide)-based assay was used to determine in vitro cytotoxicity as previously reported.[24] The tested mammalian cell lines included mouse fibroblasts (L929), endocervical adenocarcinoma (KB3.1), human lung carcinoma (A549), breast adenocarcinoma (MCF-7), prostate carcinoma (PC-3), and epidermoid carcinoma cells (A431).

The test system of series [13] is human endocervical adenocarcinoma (KB3.1). Put plainly: Cytotoxicity (MTT) assay, KB3.1.
Source text: as §2

In series [14] the test system is human prostate carcinoma (PC-3). Put plainly: Cytotoxicity (MTT) assay, PC-3. The conditions noted are these: PC-3, read-out: IC50, positive control epothilone B. The text has this:
(§3) MTT (3-(4,5-dimethylthiayol-2-yl)-2,5-diphenyltetrazolium bromide)-based assay was used to determine in vitro cytotoxicity as previously reported.[24] The tested mammalian cell lines included mouse fibroblasts (L929), endocervical adenocarcinoma (KB3.1), human lung carcinoma (A549), breast adenocarcinoma (MCF-7), prostate carcinoma (PC-3), and epidermoid carcinoma cells (A431). Epothilone B was used as a positive control.

For series [15], the system named is human breast adenocarcinoma (MCF-7). In words: Cytotoxicity (MTT) assay, MCF-7. To be noted: MCF7, read-out: IC50, positive control epothilone B.
Source text: as §3

The test system of series [16] is human ovarian cancer (SKOV-3). In words: Cytotoxicity (MTT) assay, SKOV-3. To be noted: SK-OV-3, read-out: IC50, positive control epothilone B.
Series [17] has as its system human epidermoid carcinoma (A431). Put plainly: Cytotoxicity (MTT) assay, A431. The conditions noted are these: A-431, read-out: IC50, positive control epothilone B.
Source text: as §3

The test system of series [18] is human lung carcinoma (A549). Put plainly: Cytotoxicity (MTT) assay, A549. To be noted: A549, read-out: IC50, positive control epothilone B.
Source text: as §3

Where [19] appears, read: DSM346, overnight incubation, read-out: MIC.

In brackets after ≈: the same amount, converted by molar mass. Where two headings read alike, the source gives them in different places.

In general, MIC refers to the least concentration at which growth counts as inhibited. One may read the IC50 as the concentration that inhibits the measured activity by half.

`CC(C)=CCC(CC1=CC(=O)OC1)C(=O)O` (centres unmarked) [Compound 2, vibralactones J]: the MIC entry in [1] (overnight incubation), in series [2], in series [3] (overnight incubation), in [4], in series [5] and in series [6] was “n.i” each time. The MIC entry in [7], in [8], in series [9], in series [10] (overnight incubation), in [11] and in series [12] was “n.i” in each case.

For `CC(C)=CCC(/C=C(\CO)CCO)C(=O)O` (centres unmarked) [Compound 3, sterepinic acid A], the “cytotoxicity (in words)” value (in the series with mouse fibroblast (L929); in series [13]) was “non-cytotoxic” each time. Also, the MIC in series [1] (setting [19]) was 66.6 mg/L (≈ 292 µM); in series [2] it was “n.i”; in [3] (overnight incubation), “n.i”; in [4], “n.i”; in [5] it was “n.i”; in series [6] it was “n.i”. Besides, the MIC result in [7], in [8], in [9], in [10] (overnight incubation), in [11] and in series [12] was “n.i” each time.

Take `CC(C)(O)[C@H]1C[C@@H](CC2=CC(=O)OC2)C(=O)O1` [Compound 4, vibralactones Z1]: the MIC result in [1] (overnight incubation), in series [2], in series [3] (overnight incubation), in series [4], in series [5] and in [6] was “n.i” each time. In addition, the MIC entry in series [7], in series [8], in series [9], in series [10] (overnight incubation), in series [11] and in series [12] was “n.i” in each case.

Regarding `CC(C)(O)[C@H]1C[C@H](CC2=CC(=O)OC2)C(=O)O1` [Compound 5, vibralactones Z2], the “cytotoxicity (in words)” value (in the series with mouse fibroblast (L929); in series [13]) was “non-cytotoxic” throughout. Besides, the MIC was 66.6 mg/L (≈ 277 µM) in [1] (setting [19]); “n.i” in series [2]; “n.i” in series [3] (overnight incubation); “n.i” in series [4]; “n.i” in series [5]; “n.i” in series [6]. Further, the MIC entry in series [7], in [8], in series [9], in [10] (overnight incubation), in series [11] and in series [12] was “n.i” in each case.

For `CC(C)=CC[C@H]1C=C(CO)C=COC1=O` [Compound 6, 1,5-secovibralactone], the MIC entry in [1] (overnight incubation), in [2], in series [3] (overnight incubation), in [4], in series [5] and in series [6] was “n.i” in each case. The MIC result is “n.i” in [7]; “n.i” in series [8]; “n.i” in series [9]; 66.6 mg/L (≈ 320 µM) in [10] (DSM2656, overnight incubation, read-out: MIC); “n.i” in series [11]; “n.i” in series [12].

In the case of `COc1ccc([C@H](O)[C@H](C)O)cc1` [Compound 11, (4-methoxyphenyl)-1,2-propanediol], the MIC result in [1] (overnight incubation), in series [2], in series [3] (overnight incubation), in [4], in [5] and in [6] was “n.i” each time. In addition, the MIC entry in series [7], in series [8], in series [9], in series [10] (overnight incubation), in series [11] and in series [12] was “n.i” in each case.

As to `COc1ccc(C(=O)C(C)O)cc1` (centres unmarked) [Compound 12, 2-hydroxy-(4′-methoxy)-propiophenone], the MIC entry in [1] (overnight incubation), in [2], in series [3] (overnight incubation), in series [4], in [5] and in [6] was “n.i” each time. Moreover, the MIC entry in series [7], in series [8], in series [9], in series [10] (overnight incubation), in [11] and in [12] was “n.i” throughout.

Turning to `C/C(=C\c1csc(C)n1)[C@@H]1C[C@@H]2O[C@]2(C)CCC[C@H](C)[C@H](O)[C@@H](C)C(=O)C(C)(C)[C@@H](O)CC(=O)O1` [epothilone B, Epothilone B, reference compound], the concentration for half-maximal inhibition (IC50) in [14] came out at 0.09 nM; in series [15] it was 0.07 nM; in series [16], 0.09 nM; in series [17], 0.06 nM; in [18], 0.05 nM.

As to `NC[C@H]1O[C@H](O[C@H]2[C@H](O)[C@@H](O[C@H]3O[C@H](CO)[C@@H](O)[C@H](N)[C@H]3O)[C@H](N)C[C@@H]2N)[C@H](O)[C@@H](O)[C@@H]1O` [kanamycin, reference compound], the MIC in series [12] was 1.70^K μg/mL.

With `C[C@@H]1[C@H](O)[C@@H](C)/C=C/C=C/CC/C=C/C=C/C=C/C=C/C(O[C@H]2O[C@H](C)[C@@H](O)[C@H](N)[C@@H]2O)CC2O[C@](O)(CC(O)C(O)CCC(O)CC(O)CC(O)CC(=O)O[C@H]1C)CC(O)C2C(=O)O` (some centres unmarked) [nystatin, reference compound], the MIC is 8.30^N μg/mL in [5]; 8.30^N μg/mL in [6]; 8.30^N μg/mL in [9]; 8.30^N μg/mL in [10] (overnight incubation); 4.20^N μg/mL in [11].

For `CN(C)[C@@H]1C(O)=C(C(N)=O)C(=O)[C@@]2(O)C(O)=C3C(=O)c4c(O)cccc4[C@@](C)(O)[C@H]3[C@H](O)[C@@H]12` [oxytetracycline, reference compound], the MIC in series [3] (DSM10, overnight incubation, read-out: MIC) turned out to be 16.6 mg/L (≈ 36.1 µM).

Gentamycin [reference compound]: the MIC in series [1] (overnight incubation) is 0.42^G μg/mL; in series [2], 0.83^G μg/mL; in series [4] it was 0.42^G μg/mL; in [8] it was 1.67^G μg/mL.
